According to ChEMBL document CHEMBL3351686, “Facile and diastereoselective synthesis of 3,2'-spiropyrrolidine-oxindoles derivatives, their molecular docking and antiproliferative activities” (2015):
In brackets after ≈: the same amount, converted by molar mass.

Tests used:
Proteus vulgaris [1] = assay: Antibacterial activity against Proteus vulgaris MTCC 1771 assessed as zone of inhibition at 1 mg/disc after 24 hrs by disc diffusion method; assay type: functional
Staphylococcus aureus [2] = assay: Antibacterial activity against methicillin-resistant Staphylococcus aureus assessed as zone of inhibition at 1 mg/disc after 24 hrs by disc diffusion method; assay type: functional
Klebsiella pneumoniae [3] = assay: Antibacterial activity against Klebsiella pneumoniae MTCC 109 assessed as zone of inhibition at 1 mg/disc after 24 hrs by disc diffusion method; assay type: functional
Klebsiella aerogenes [4] = assay: Antibacterial activity against Enterobacter aerogenes MTCC 111 assessed as zone of inhibition at 1 mg/disc after 24 hrs by disc diffusion method; assay type: functional
[5] = system: Staphylococcus epidermidis; assay: Antibacterial activity against Staphylococcus epidermidis MTCC 3615 assessed as zone of inhibition at 1 mg/disc after 24 hrs by disc diffusion method; assay type: functional
Staphylococcus aureus [6] = assay: Antibacterial activity against Staphylococcus aureus MTCC 96 assessed as zone of inhibition at 1 mg/disc after 24 hrs by disc diffusion method; assay type: functional
Micrococcus luteus [7] = assay: Antibacterial activity against Micrococcus luteus MTCC 106 assessed as zone of inhibition at 1 mg/disc after 24 hrs by disc diffusion method; assay type: functional
Candida albicans [8] = assay: Antifungal activity against Candida albicans MTCC 227 assessed as zone of inhibition at 1 mg/disc after 48 hrs by disc diffusion method; assay type: functional
Salmonella typhimurium = assay: Antibacterial activity against Salmonella typhimurium MTCC 1251 assessed as zone of inhibition at 1 mg/disc after 24 hrs by disc diffusion method; assay type: functional, Salmonella enterica subsp. enterica serovar Typhimurium
Malassezia pachydermatis [9] = assay: Antifungal activity against Malassezia pachydermatis assessed as zone of inhibition at 1 mg/disc after 48 hrs by disc diffusion method; assay type: functional
[10] = system: Staphylococcus epidermidis; assay: Antibacterial activity against Staphylococcus epidermidis MTCC 3615 assessed as inhibition of visual growth after 24 hrs; assay type: functional; settings: MTCC 3615, 24 h
Staphylococcus aureus [11] = assay: Antibacterial activity against methicillin-resistant Staphylococcus aureus assessed as inhibition of visual growth after 24 hrs; assay type: functional
Malassezia pachydermatis [12] = assay: Antifungal activity against Malassezia pachydermatis assessed as inhibition of visual growth after 48 to 72 hrs; assay type: functional
Klebsiella aerogenes [13] = assay: Antibacterial activity against Enterobacter aerogenes MTCC 111 assessed as inhibition of visual growth after 24 hrs; assay type: functional; settings: MTCC 111, 24 h
Klebsiella pneumoniae [14] = assay: Antibacterial activity against Klebsiella pneumoniae MTCC 109 assessed as inhibition of visual growth after 24 hrs; assay type: functional; settings: MTCC 109, 24 h
Staphylococcus aureus [15] = assay: Antibacterial activity against Staphylococcus aureus MTCC 96 assessed as inhibition of visual growth after 24 hrs; assay type: functional; settings: MTCC 96, 24 h
Proteus vulgaris [16] = assay: Antibacterial activity against Proteus vulgaris MTCC 1771 assessed as inhibition of visual growth after 24 hrs; assay type: functional; settings: MTCC 1771, 24 h
Micrococcus luteus [17] = assay: Antibacterial activity against Micrococcus luteus MTCC 106 assessed as inhibition of visual growth after 24 hrs; assay type: functional; settings: MTCC 106, 24 h
Candida albicans [18] = assay: Antifungal activity against Candida albicans MTCC 227 assessed as inhibition of visual growth after 48 to 72 hrs; assay type: functional

With N#C[C@]1(C(=O)c2c[nH]c3ccccc23)C2CSCN2[C@]2(C(=O)Nc3ccc([N+](=O)[O-])cc32)[C@@H]1c1cn(-c2ccccc2)nc1-c1ccccc1 (stereo not given in full) the “inhibition zone (IZ)” value (Proteus vulgaris [1]) was 8 mm.
With N#C[C@]1(C(=O)c2c[nH]c3ccccc23)C2CCCN2[C@]2(C(=O)N(Cc3ccccc3)c3ccccc32)[C@@H]1c1cn(-c2ccccc2)nc1-c1ccccc1 (stereo not given in full) the “inhibition zone (IZ)” value (Staphylococcus aureus [2]) was 8 mm, the “inhibition zone (IZ)” value (Klebsiella pneumoniae [3]) was 11 mm and the “inhibition zone (IZ)” value (Proteus vulgaris [1]) was 10 mm. For the same compound, the “inhibition zone (IZ)” value (Klebsiella aerogenes [4]) was 8 mm, the “inhibition zone (IZ)” value [5] was 15 mm and the “inhibition zone (IZ)” value (Staphylococcus aureus [6]) was 13 mm. For the same compound, the “inhibition zone (IZ)” value (Micrococcus luteus [7]) was 9 mm, the “inhibition zone (IZ)” value (Candida albicans [8]) was 8 mm and the “inhibition zone (IZ)” value (Salmonella typhimurium) was 14 mm.
In the case of CN1C[C@](C#N)(C(=O)c2c[nH]c3ccccc23)[C@@H](c2cn(-c3ccccc3)nc2-c2ccccc2)[C@@]12C(=O)Nc1ccccc12, the “inhibition zone (IZ)” value (Malassezia pachydermatis [9]) is reported as 9 mm, the “inhibition zone (IZ)” value (Staphylococcus aureus [2]) is reported as 8 mm and the MIC [10] is reported as 500 µg/mL (≈ 849 µM). For the same compound, the “inhibition zone (IZ)” value (Klebsiella pneumoniae [3]) was 9 mm, the “inhibition zone (IZ)” value (Proteus vulgaris [1]) was 8 mm and the “inhibition zone (IZ)” value (Klebsiella aerogenes [4]) was 9 mm. The MIC (Staphylococcus aureus [11]) was 500 µg/mL (≈ 849 µM), the “inhibition zone (IZ)” value [5] was 8 mm and the MIC (Malassezia pachydermatis [12]) was 500 µg/mL (≈ 849 µM). The “inhibition zone (IZ)” value (Staphylococcus aureus [6]) was 9 mm, the MIC (Klebsiella aerogenes [13]) was 500 µg/mL (≈ 849 µM) and the MIC (Klebsiella pneumoniae [14]) was 500 µg/mL (≈ 849 µM). For the same compound, the MIC (Staphylococcus aureus [15]) was 500 µg/mL (≈ 849 µM), the “inhibition zone (IZ)” value (Micrococcus luteus [7]) was 10 mm and the MIC (Proteus vulgaris [16]) was 500 µg/mL (≈ 849 µM). It also gave an MIC (Micrococcus luteus [17]) of 250 µg/mL (≈ 425 µM).
For CN1C[C@](C#N)(C(=O)c2c[nH]c3ccccc23)[C@@H](c2cn(-c3ccccc3)nc2-c2ccccc2)[C@@]12C(=O)Nc1ccc(Cl)cc12, the “inhibition zone (IZ)” value (Malassezia pachydermatis [9]) was 9 mm, the “inhibition zone (IZ)” value (Staphylococcus aureus [2]) was 12 mm and the “inhibition zone (IZ)” value (Klebsiella pneumoniae [3]) was 9 mm. For the same compound, the “inhibition zone (IZ)” value (Proteus vulgaris [1]) was 11 mm, the “inhibition zone (IZ)” value (Klebsiella aerogenes [4]) was 9 mm and the “inhibition zone (IZ)” value [5] was 8 mm. For the same compound, the “inhibition zone (IZ)” value (Staphylococcus aureus [6]) was 11 mm, the “inhibition zone (IZ)” value (Micrococcus luteus [7]) was 10 mm and the “inhibition zone (IZ)” value (Candida albicans [8]) was 11 mm. For the same compound, the “inhibition zone (IZ)” value (Salmonella typhimurium) was 8 mm.
With CCCCN1C(=O)[C@]2(c3ccccc31)[C@H](c1cn(-c3ccccc3)nc1-c1ccccc1)[C@@](C#N)(C(=O)c1c[nH]c3ccccc13)CN2C the “inhibition zone (IZ)” value (Malassezia pachydermatis [9]) was 11 mm, the MIC [10] was 500 µg/mL (≈ 775 µM) and the MIC (Candida albicans [18]) was 500 µg/mL (≈ 775 µM). For the same compound, the “inhibition zone (IZ)” value (Klebsiella pneumoniae [3]) was 9 mm, the “inhibition zone (IZ)” value (Proteus vulgaris [1]) was 8 mm and the “inhibition zone (IZ)” value (Klebsiella aerogenes [4]) was 13 mm. The “inhibition zone (IZ)” value [5] was 9 mm, the MIC (Malassezia pachydermatis [12]) was 250 µg/mL (≈ 388 µM) and the MIC (Klebsiella aerogenes [13]) was 125 µg/mL (≈ 194 µM). The MIC (Klebsiella pneumoniae [14]) was 500 µg/mL (≈ 775 µM), the “inhibition zone (IZ)” value (Micrococcus luteus [7]) was 11 mm and the “inhibition zone (IZ)” value (Candida albicans [8]) was 9 mm. The MIC (Proteus vulgaris [16]) was 500 µg/mL (≈ 775 µM) and the MIC (Micrococcus luteus [17]) was 250 µg/mL (≈ 388 µM).
C=CCN1C(=O)[C@]2(c3ccccc31)[C@H](c1cn(-c3ccccc3)nc1-c1ccccc1)[C@@](C#N)(C(=O)c1c[nH]c3ccccc13)CN2C was tested, and the “inhibition zone (IZ)” value (Malassezia pachydermatis [9]) was 11 mm, the “inhibition zone (IZ)” value (Staphylococcus aureus [2]) was 8 mm and the MIC [10] was 250 µg/mL (≈ 398 µM). The “inhibition zone (IZ)” value (Klebsiella pneumoniae [3]) was 10 mm, the “inhibition zone (IZ)” value (Proteus vulgaris [1]) was 8 mm and the “inhibition zone (IZ)” value (Klebsiella aerogenes [4]) was 11 mm. For the same compound, the MIC (Staphylococcus aureus [11]) was 500 µg/mL (≈ 795 µM), the “inhibition zone (IZ)” value [5] was 10 mm and the MIC (Malassezia pachydermatis [12]) was 250 µg/mL (≈ 398 µM). For the same compound, the “inhibition zone (IZ)” value (Staphylococcus aureus [6]) was 11 mm, the MIC (Klebsiella aerogenes [13]) was 250 µg/mL (≈ 398 µM) and the MIC (Klebsiella pneumoniae [14]) was 125 µg/mL (≈ 199 µM). The MIC (Staphylococcus aureus [15]) was 250 µg/mL (≈ 398 µM), the “inhibition zone (IZ)” value (Micrococcus luteus [7]) was 12 mm and the MIC (Proteus vulgaris [16]) was 500 µg/mL (≈ 795 µM). The MIC (Micrococcus luteus [17]) was 250 µg/mL (≈ 398 µM).
CN1C(=O)[C@]2(c3ccccc31)[C@H](c1cn(-c3ccccc3)nc1-c1ccccc1)[C@@](C#N)(C(=O)c1c[nH]c3ccccc13)CN2C was tested, and the “inhibition zone (IZ)” value (Malassezia pachydermatis [9]) was 10 mm, the MIC [10] was 500 µg/mL (≈ 830 µM) and the MIC (Candida albicans [18]) was 250 µg/mL (≈ 415 µM). For the same compound, the “inhibition zone (IZ)” value (Klebsiella pneumoniae [3]) was 8 mm, the “inhibition zone (IZ)” value (Proteus vulgaris [1]) was 10 mm and the “inhibition zone (IZ)” value (Klebsiella aerogenes [4]) was 8 mm. For the same compound, the “inhibition zone (IZ)” value [5] was 8 mm, the MIC (Malassezia pachydermatis [12]) was 500 µg/mL (≈ 830 µM) and the MIC (Klebsiella aerogenes [13]) was 500 µg/mL (≈ 830 µM). The MIC (Klebsiella pneumoniae [14]) was 500 µg/mL (≈ 830 µM), the “inhibition zone (IZ)” value (Micrococcus luteus [7]) was 10 mm and the “inhibition zone (IZ)” value (Candida albicans [8]) was 11 mm. It also gave an MIC (Proteus vulgaris [16]) of 250 µg/mL (≈ 415 µM) and an MIC (Micrococcus luteus [17]) of 500 µg/mL (≈ 830 µM).
